From PMC4303209, “A novel phosphatidylinositol 3-kinase (PI3K) inhibitor directs a potent FOXO-dependent, p53-independent cell cycle arrest phenotype characterized by the differential induction of a subset of FOXO-regulated genes” (Breast Cancer Research : BCR, 2014)

Test system: MCF-7 breast cancer cells
Assay: Microarray gene expression analysis (Agilent whole human genome 4 x 44K; compound vs DMSO, LIMMA log2 fold change)
Format: cell-based
Conditions: Apoptosis genes

Cn1ncc2c(N3CCOCC3)nc(-c3cccc(O)c3)nc21 [ETP-45658]
HSPD1 log2FC (Gene 3329): 0.324 | HSPE1 log2FC (Gene 3336): -0.110 | HTR2B log2FC (Gene 3357): -0.636 | IAPP log2FC (Gene 3375): -0.105 | ID1 log2FC (Gene 3397): -0.206 | ID3 log2FC (Gene 3399): -0.237 | IFI16 log2FC (Gene 3428): 0.357 | IFI27 log2FC (Gene 3429): -0.362 | IFIT2 log2FC (Gene 3433): 1.724 | IFIT3 log2FC (Gene 3437): 0.389 | IFNG log2FC (Gene 3458): -0.055 | IGBP1 log2FC (Gene 3476): 0.248 | IGF1 log2FC (Gene 3479): 0.046 | IGF1R log2FC (Gene 3480): 0.075 | IGF2R log2FC (Gene 3482): 0.109 | IGFBP3 log2FC (Gene 3486): -0.114 | IKBKB log2FC (Gene 3551): 0.231 | IL1B log2FC (Gene 3553): -0.057 | IL1RN log2FC (Gene 3557): -0.173 | IL2 log2FC (Gene 3558): -0.036 | IL4 log2FC (Gene 3565): -0.060 | IL6 log2FC (Gene 3569): 0.421 | IL6R log2FC (Gene 3570): 0.499 | IL6ST log2FC (Gene 3572): 0.387 | IL7 log2FC (Gene 3574): 0.329 | IL10 log2FC (Gene 3586): -0.054 | TNFRSF9 log2FC (Gene 3604): -0.082 | ING2 log2FC (Gene 3622): 0.424 | INHBA log2FC (Gene 3624): -0.426 | INHBB log2FC (Gene 3625): -1.024 | INS log2FC (Gene 3630): -0.159 | INPP5D log2FC (Gene 3635): -0.052 | INSL3 log2FC (Gene 3640): -0.299 | IRAK1 log2FC (Gene 3654): -0.289 | IRF1 log2FC (Gene 3659): -0.225 | IRF3 log2FC (Gene 3661): -0.604 | IRF5 log2FC (Gene 3663): 1.125 | IRF7 log2FC (Gene 3665): 0.214 | ITGA1 log2FC (Gene 3672): 0.199 | ITGA5 log2FC (Gene 3678): -0.764 | ITGAV log2FC (Gene 3685): 0.634 | ITGB1 log2FC (Gene 3688): 0.722 | ITPR1 log2FC (Gene 3708): 0.270 | JAG2 log2FC (Gene 3714): 0.300 | JAK2 log2FC (Gene 3717): 0.353 | JAK3 log2FC (Gene 3718): -0.320 | JUN log2FC (Gene 3725): -0.912 | KCNMA1 log2FC (Gene 3778): 0.256 | KNG1 log2FC (Gene 3827): -0.104 | KPNA1 log2FC (Gene 3836): -0.177 | KPNB1 log2FC (Gene 3837): 0.586 | KRT8 log2FC (Gene 3856): -0.518 | KRT18 log2FC (Gene 3875): -0.481 | LCK log2FC (Gene 3932): -0.268 | LEP log2FC (Gene 3952): -0.061 | LGALS7 log2FC (Gene 3963): -0.300 | LIG4 log2FC (Gene 3981): 0.100 | LMNA log2FC (Gene 4000): -0.311 | LMNB1 log2FC (Gene 4001): -0.133 | LRP6 log2FC (Gene 4040): -0.141 | LTBR log2FC (Gene 4055): -0.240 | LTK log2FC (Gene 4058): -0.048 | LYN log2FC (Gene 4067): -0.239 | SMAD3 log2FC (Gene 4088): 0.254 | SMAD6 log2FC (Gene 4091): -0.277 | MAL log2FC (Gene 4118): -0.683 | MAX log2FC (Gene 4149): -0.288 | MCF2 log2FC (Gene 4168): 0.044 | MCL1 log2FC (Gene 4170): -1.365 | MDK log2FC (Gene 4192): -0.110 | MDM2 log2FC (Gene 4193): -0.059 | MECP2 log2FC (Gene 4204): -0.162 | MEF2A log2FC (Gene 4205): -0.315 | MEF2C log2FC (Gene 4208): 0.262 | MEF2D log2FC (Gene 4209): -0.705 | MAP3K5 log2FC (Gene 4217): -0.666 | MEN1 log2FC (Gene 4221): -0.273 | KITLG log2FC (Gene 4254): -0.228 | MGMT log2FC (Gene 4255): -0.305 | MIF log2FC (Gene 4282): 0.242 | MLH1 log2FC (Gene 4292): 0.538 | MAP3K9 log2FC (Gene 4293): -0.899 | MAP3K10 log2FC (Gene 4294): 0.297 | MAP3K11 log2FC (Gene 4296): -0.949 | MMP9 log2FC (Gene 4318): -0.727 | MNAT1 log2FC (Gene 4331): 0.729 | MNT log2FC (Gene 4335): 1.624 | MPO log2FC (Gene 4353): 0.046 | CITED1 log2FC (Gene 4435): -0.078 | MSH2 log2FC (Gene 4436): 0.939 | MSX1 log2FC (Gene 4487): -0.324 | MUC1 log2FC (Gene 4582): -0.901 | MUC2 log2FC (Gene 4583): -0.262 | MUC5AC log2FC (Gene 4586): -0.379 | MUSK log2FC (Gene 4593): -0.344 | MX1 log2FC (Gene 4599): 0.147 | MYC log2FC (Gene 4609): 0.554 | MYD88 log2FC (Gene 4615): -0.689 | GADD45B log2FC (Gene 4616): 0.642 | NBN log2FC (Gene 4683): 0.839 | NDUFS1 log2FC (Gene 4719): 0.459 | NF1 log2FC (Gene 4763): 0.412 | NFATC4 log2FC (Gene 4776): 0.112 | NFE2L2 log2FC (Gene 4780): 0.727 | NFKB1 log2FC (Gene 4790): -0.122 | NFKBIA log2FC (Gene 4792): -0.281 | NGFR log2FC (Gene 4804): -0.063 | NKX3-1 log2FC (Gene 4824): -0.261 | NME1 log2FC (Gene 4830): 0.168 | NME2 log2FC (Gene 4831): 0.216 | NME3 log2FC (Gene 4832): -0.214 | NMT1 log2FC (Gene 4836): -0.046 | NODAL log2FC (Gene 4838): -0.110 | NOS3 log2FC (Gene 4846): -0.420 | NOTCH2 log2FC (Gene 4853): 0.166 | NPM1 log2FC (Gene 4869): 0.586 | NPTX1 log2FC (Gene 4884): -0.350 | NPY5R log2FC (Gene 4889): -0.068 | SLC11A2 log2FC (Gene 4891): 0.211 | NRAS log2FC (Gene 4893): -0.204 | NTF3 log2FC (Gene 4908): -1.251 | NTRK2 log2FC (Gene 4915): -0.357 | NR4A2 log2FC (Gene 4929): 0.761 | OCLN log2FC (Gene 4950): 0.639 | OPA1 log2FC (Gene 4976): 0.527 | TNFRSF11B log2FC (Gene 4982): 0.707 | OSM log2FC (Gene 5008): 0.056 | P2RX1 log2FC (Gene 5023): -0.067 | P2RX4 log2FC (Gene 5025): 0.236 | P2RX7 log2FC (Gene 5027): -0.509 | SERPINB2 log2FC (Gene 5055): -0.075 | PAK1 log2FC (Gene 5058): 0.117 | PAK2 log2FC (Gene 5062): -0.170 | PARK2 log2FC (Gene 5071): -0.177 | PAWR log2FC (Gene 5074): 0.858 | PAX3 log2FC (Gene 5077): -0.277 | PAX4 log2FC (Gene 5078): -0.139 | PAX7 log2FC (Gene 5081): -0.260 | PCNT log2FC (Gene 5116): 0.317 | PDCD1 log2FC (Gene 5133): -0.432 | PDCD2 log2FC (Gene 5134): -0.150 | PDE1A log2FC (Gene 5136): -0.227 | PDK1 log2FC (Gene 5163): 0.562 | PDK2 log2FC (Gene 5164): 1.064 | PDK4 log2FC (Gene 5166): 0.792 | PDPK1 log2FC (Gene 5170): 0.541 | PHB log2FC (Gene 5245): -0.244 | SERPINB9 log2FC (Gene 5272): -0.261 | SERPINB10 log2FC (Gene 5273): 0.731 | PIK3CA log2FC (Gene 5290): 0.795 | PIM1 log2FC (Gene 5292): 1.131 | PIK3R1 log2FC (Gene 5295): 0.328 | PLAGL1 log2FC (Gene 5325): 0.310 | PLAGL2 log2FC (Gene 5326): -1.493 | PLK1 log2FC (Gene 5347): -0.287 | PLSCR1 log2FC (Gene 5359): 0.433 | PMAIP1 log2FC (Gene 5366): -1.093
